The test system of assay [1] is H2228 (human lung cancer cells). Kind of assay: Cell proliferation assay (CellTiter-Glo), H2228. It counts as cell-based. To be noted: NCI-H2228, 72 hours, EML4-ALK fusion. The source says: The following method was used to determine the effects of the compounds of the present invention on cell proliferation. H2228 cells (containing EML4-ALK fusion) were purchased from Cell Resource Center of Shanghai Institutes for Biological Sciences, Chinese Academy of Sciences. KARPAS-299 cells (containing NPM-ALK fusion) were purchased from Nanjing COBIOER Biotechnology Co., Ltd. The above two cell lines were used to determine the inhibition of the compounds on cell activities. The cells were cultured in an RPMI 1640 medium containing 10% fetal bovine serum, 100 U penicillin, 100 µg/mL streptomycin, and 1 mM Sodium Pyruvate. The cells were cultured in a 5% CO2 incubator at 37°C. The activity of the cells was determined by CellTiter-Glo® Luminescent Cell Viability Assay kit (Promega, article number: G7573).
(§1) The experimental methods were operated according to the steps in the kit instruction, and were briefly described as follows: a test compound was first dissolved in DMSO to prepare a storage solution, and then diluted in gradient with the corresponding cell culture medium to prepare a test sample. […] After the culture, 50 µL of CellTiter-Glo detection solution was added to each well, shaken for 5 minutes, and then stood for 10 minutes, and the luminescence values of each well were read on the microplate reader using a Luminance mode. […]
A general note: ATP-based viability assays read luminescence as a measure of living cells.

Another assay has as its target T1, TRKB (Homo sapiens, UniProt Q16620).
T1 construct: purchased Carna bioscience 08-187
The experiment in a line: HTRF KinEASE-TK kinase activity inhibition assay, TRKB. It counts as biochemical. The settings on record: ATP 10 µM. The source says: The following method was used to determine the inhibition degrees of the compounds of the present invention on the activity of recombinant human NTRK family kinase in vitro. In this method, HTRF®KinEASE-TK tyrosine kinase kit (article number: 62TK0PEB) of Cisbio company was used, and the principle of the kit was based on time-resolved fluorescence resonance energy transfer (TF-FRET), and the inhibition of the compounds on the activity of the NTRK kinase was reflected by determining a phosphorylation degree of a biotinylated polypeptide substrate mediated by NTRK kinase. For detailed experimental operation, please refer to the kit instruction. Recombinant human wild-type NTRK proteins were purchased from Carna bioscience (the article numbers were TRKA #08-186, TRKB #08-187 and TRKC #08-197 respectively), and recombinant human mutant NTRK proteins were purchased from SignalChem (the article numbers were TRKA G595R #N16-12BG-10, TRKA G667C # N16-12CG-10, and TRKC G623R # N18-12CH-10 respectively).
The experimental methods were operated according to the steps in the kit instruction, and were briefly described as follows: a test compound was first dissolved in DMSO to prepare a storage solution, and then diluted in gradient with a buffer provided in the kit. A final concentration of the test compound in the reaction system ranged from 1,000 nM to 0.004 nM. An ATP Km value concentration of each NTRK protein was determined by using an ATP solution diluted in gradient (Sangon Biotech (Shanghai) Co., Ltd., A600311). According to the Km value obtained, the ATP concentrations in the reaction system were set as 100 µM for TRKA, 10 µM for TRKB, 50 µM for TRKC, 7 µM for TRKA(G595R), 1 µM for TRKA(G667C) and 100 µM for TRKC(G623R). The reaction was carried out in a 384-well microplate. Firstly, the compound and a certain amount of corresponding NTRK protein were added to the wells and incubated for 5 minutes to 10 minutes at room temperature. Then, the ATP solution and the biotinylated polypeptide substrate solution were added to the reaction solution and incubated with shaking at room temperature for 60 minutes. Then, an anti-phosphorylated tyrosine antibody coupled with a europium compound and streptavidin coupled with modified allophycocyanin XL665 were added to the reaction, and continuously incubated with shaking at room temperature for 1 hour. After incubation, fluorescence intensity values of each well at an excitation wavelength of 304 nm, and emission wavelengths of 620 nm and 665 nM were determined in a TF-FRET mode on a microplate reader. Compared with the fluorescence intensity ratio of a control group (0.1% DMSO), the percentage inhibition rates of the compound at each concentration were calculated, and the IC50 value of the compound was obtained by performing nonlinear regression analysis for logarithmic value of the compound concentration - inhibition rate by GraphPad Prism 5 software, which can be seen in Table 1. Table 1 IC50 data of the compounds of the present invention on TRK enzyme activity inhibition

Another assay concerns BAF3 LMNA-TRKA^WT. Kind of assay: Cell proliferation assay (CellTiter-Glo), BAF3 LMNA-TRKA WT. The class given is cell-based. To be noted: Mus musculus, 72 hours. Here is the method:
The following method was used to determine the effects of the compounds of the present invention on cell proliferation. BAF3 cells were purchased from National Infrastructure of Cell Line Resource (Beijing Headquarter). For TRKA, BAF3 cells were used to construct […] stable cell lines of BAF3 LMNA-TRKA^WT and BAF3 LMNA-TRKA^G667C.The above […] cell lines were used to determine the inhibition of the compounds on cell activities. The cells were cultured in an RPMI 1640 medium containing 10% fetal bovine serum, 100 U penicillin and 100 µg/mL streptomycin. The cells were cultured in a 5% CO2 incubator at 37°C. The activities of the cells were determined by CellTiter-Glo® Luminescent Cell Viability Assay kit (Promega, article number: G7573).
as §1, with “sample. A final concentration of the compound ranged from 1 µM to 0.15 nM.” for “sample.”

T1 sequence (Q16620 32-822): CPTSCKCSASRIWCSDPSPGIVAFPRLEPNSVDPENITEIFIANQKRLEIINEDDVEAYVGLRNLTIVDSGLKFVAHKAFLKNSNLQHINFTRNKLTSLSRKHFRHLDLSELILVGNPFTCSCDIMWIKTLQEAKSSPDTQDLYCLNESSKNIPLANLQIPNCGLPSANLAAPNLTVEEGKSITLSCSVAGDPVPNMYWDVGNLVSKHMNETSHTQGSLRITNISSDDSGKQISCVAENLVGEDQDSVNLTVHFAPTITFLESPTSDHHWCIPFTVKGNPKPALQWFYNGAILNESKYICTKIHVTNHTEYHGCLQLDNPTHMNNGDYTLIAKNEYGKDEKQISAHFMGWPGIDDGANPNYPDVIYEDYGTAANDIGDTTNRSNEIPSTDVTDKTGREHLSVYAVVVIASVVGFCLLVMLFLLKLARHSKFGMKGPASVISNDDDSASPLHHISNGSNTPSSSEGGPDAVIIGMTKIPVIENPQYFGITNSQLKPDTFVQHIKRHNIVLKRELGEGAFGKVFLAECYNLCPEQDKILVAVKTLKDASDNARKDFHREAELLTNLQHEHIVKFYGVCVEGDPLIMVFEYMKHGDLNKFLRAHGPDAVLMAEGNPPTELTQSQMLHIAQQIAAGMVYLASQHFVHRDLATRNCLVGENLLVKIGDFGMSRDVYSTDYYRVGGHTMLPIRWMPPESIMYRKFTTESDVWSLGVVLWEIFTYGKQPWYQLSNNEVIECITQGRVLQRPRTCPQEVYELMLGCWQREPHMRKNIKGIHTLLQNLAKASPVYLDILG

The IC50 is the concentration that gives 50% inhibition. With `C[C@H]1Nc2ccn3ncc(c3n2)C(=O)NC[C@@]2(C)Cc3cc(F)cc1c3O2` [Example 8, (3R,11R)-6-fluoro-3,11-dimethyl-10-oxa-2,13,17,1 8,21-pentaazapentacyclo[13.5.2.1^8,11.0^4,9.0^18,22]tric osa-1(21),4,6,8,15(22),16,19-heptaen-14-one], the values for the IC50 (in assay [1]; on TRKB; in the assay with BAF3 LMNA-TRKA^WT) were 164 nM, 0.45 nM and 1.5 nM, respectively.

As for `C[C@H]1Nc2ccn3nc(N)c(c3n2)C(=O)NC[C@@]2(C)Cc3cc(F)cc1c3O2` [Example 25, (3R,11R)-16-amino-6-fluoro-3,11-dimethyl-10-oxa-2,13,17,18,21-pentaazapentacyclo[13.5.2.1^8,11.0^4,9. 0^18,22]tricosa-1(21),4,6,8,15(22),16,19-heptaen-14-one], the IC50 on TRKB worked out at 1.17 nM; in the assay on BAF3 LMNA-TRKA^WT, 1.2 nM.

The values above are taken from EP3974434B1, “MACROLIDE DERIVATIVES, PREPARATION METHOD AND APPLICATION THEREOF” (Zhejiang Hisun Pharmaceutical Co., Ltd., priority 2019, dated 2020).
